# Experimental data as given in patent US20190071670A1, “Methods Of Treatment For Alpha-1 Antitrypsin Deficiency” (Arrowhead Pharmaceuticals, Inc., priority 2016, published 2019).
# Values joined by “and” are separate entries in the source; they are usually repeats but may differ in a detail not shown here. Equal values may be shown once.
# System: hAAT
# Assay: Serum hAAT protein levels in PiZ mice (ELISA)
# Format: in vivo, human (expressed in PiZ mice)
# Settings: for Normalized serum hAAT levels / Serum hAAT normalized to Day 1 and control / Serum hAAT normalized to day 1: PiZ mice; for Normalized serum hAAT levels: normalized to day 1 and saline control; for Serum hAAT normalized to Day 1 and control: single IV 4 mg/kg + 8 mg/kg MLP delivery polymer; for Serum hAAT normalized to day 1: single IV 6 mg/kg with 6 mg/kg MLP delivery polymer; for Serum hAAT normalized to day 1 and controls: female PiZ mice, single IV 8 mg/kg + 8 mg/kg MLP delivery polymer
# Protocol: Human AAT protein levels in serum were monitored for 29 days. At the indicated times, blood samples were collected and assayed for hAAT by ELISA. Day 1 samples were collected prior to trigger administration. For mRNA analysis, 3-4 mice were euthanized at each of days 3, 8, 15, 22, and 29. For euthanized mice, cardiac stick were performed for serum isolation for AAT ELISA (200 μl serum). Half of the left lateral liver lobe was collected and snap-freeze in liquid nitrogen for RNA isolation. The remainder of the left lobes were embedded into paraffin blocks for PAS-D staining with hematoxylin as counter-stain. Serum hAAT levels in mice given AAT Duplex Pair SEQ ID NO: 5/6 were 95% reduced on day 8 and remained reduced to day 29, at which time they were 79% reduced. Mice given AAT Duplex Pair SEQ ID NO: 5/6 were euthanized at either day 3, 8, 15, 22 or 29. Mice given saline or Luciferase siRNA control (SEQ ID 7/8) were euthanized on day 29. Levels of hAAT mRNA in the livers were measured by RT-qPCR. The hAAT mRNA in mice given AAT Duplex Pair SEQ ID NO: 5/6 was reduced by 97% on day 3 and remained reduced on day 29, at which time levels were 56% reduced. The size of the globules and the area of the liver covered by globules was digitally quantitated from liver specimens stained with PAS-D. Duplex Pair SEQ ID NO: 5/6 treated mice had 70% smaller globules at day 15 and 62% smaller globules at day 29. The area of the liver covered with globules was 83% reduced on day 15 and 72% reduced on day 29 (FIG. 5).
substance,measurement,setting,value
"Duplex Pair SEQ ID NO: 5/6: double-stranded AAT RNAi agent: modified antisense strand SEQ ID NO: 5 annealed to Chol-TEG sense strand SEQ ID NO: 6 (antisense TGGAACUUGGUGAUGAUAUTT; sense UAUAUAUCAUCACCAAGUUCCAT; Chol-TEG on sense strand; chemical modifications; antisense strand of dsRNA; modified_base 7 /mod_base = “2′-3′ seco corresponding nucleotide”; modified_base 2,4,6,8,10,12,14,16,18 /mod_base = “2′-deoxy-2′-fluoro corresponding nucleoside”; modified_base 3,5,9,11,13,15,17,19 /mod_base = “2′-O-methyl corresponding nucleoside”; modified_base 21 /mod_base = “5′-phosphorothioate corresponding nucleotide”; sense strand of dsRNA; modified_base 2 /mod_base = “2′-hydroxy corresponding nucleoside”; modified_base 4,6,8,10,12,14,16,18,20,22 /mod_base = “2′-deoxy-2′-fluoro corresponding nucleoside”; …)",Normalized serum hAAT levels,"single IV 4 mg/kg + 4 mg/kg MLP, day 1",1.00
same,Normalized serum hAAT levels,"single IV 4 mg/kg + 4 mg/kg MLP, day 8",0.03 ± 0.01
same,Normalized serum hAAT levels,"single IV 4 mg/kg + 4 mg/kg MLP, day 15",0.23 ± 0.04
same,Normalized serum hAAT levels,"single IV 4 mg/kg + 4 mg/kg MLP, day 20",0.32 ± 0.05
same,Normalized serum hAAT levels,"single IV 4 mg/kg + 4 mg/kg MLP, day 29",0.66 ± 0.10
same,Normalized serum hAAT levels,"single IV 4 mg/kg + 4 mg/kg MLP, day 36",0.83 ± 0.06
same,Normalized serum hAAT levels,"single IV 4 mg/kg + 4 mg/kg MLP, day −7",0.68 ± 0.07
same,Serum hAAT normalized to Day 1 and control,Day 1,1.00
same,Serum hAAT normalized to Day 1 and control,Day 3,0.20 ± 0.04
same,Serum hAAT normalized to Day 1 and control,Day 8,0.05 ± 0.01
same,Serum hAAT normalized to Day 1 and control,Day 15,0.09 ± 0.01
same,Serum hAAT normalized to Day 1 and control,Day 22,0.28 ± 0.05
same,Serum hAAT normalized to Day 1 and control,Day 29,0.35 ± 0.05
same,Serum hAAT normalized to Day 1 and control,Day 35,0.81 ± 0.12
same,Serum hAAT normalized to Day 1 and control,Day −3,0.73 ± 0.13
same,Serum hAAT normalized to day 1,day 1 (reference),1.00
same,Serum hAAT normalized to day 1,"day 3, listed as AAT RNAi agent (SEQ ID NO: 5/6), 6 mg/kg",0.326 ± 0.021 and 0.274 ± 0.072
same,Serum hAAT normalized to day 1,day 10,0.105 ± 0.033
same,Normalized serum hAAT levels,"single IV 8 mg/kg + 2 mg/kg MLP, day 1",1.00
same,Normalized serum hAAT levels,"single IV 8 mg/kg + 2 mg/kg MLP, day 8",0.09 ± 0.05
same,Normalized serum hAAT levels,"single IV 8 mg/kg + 2 mg/kg MLP, day 15",0.59 ± 0.16
same,Normalized serum hAAT levels,"single IV 8 mg/kg + 2 mg/kg MLP, day 20",0.74 ± 0.10
same,Normalized serum hAAT levels,"single IV 8 mg/kg + 2 mg/kg MLP, day 29",0.87 ± 0.20
same,Normalized serum hAAT levels,"single IV 8 mg/kg + 2 mg/kg MLP, day 36",0.74 ± 0.08
same,Normalized serum hAAT levels,"single IV 8 mg/kg + 2 mg/kg MLP, day −7",0.70 ± 0.15
same,Normalized serum hAAT levels,"single IV 8 mg/kg + 4 mg/kg MLP, day 1",1.00
same,Normalized serum hAAT levels,"single IV 8 mg/kg + 4 mg/kg MLP, day 8",0.04 ± 0.02
same,Normalized serum hAAT levels,"single IV 8 mg/kg + 4 mg/kg MLP, day 15",0.27 ± 0.05
same,Normalized serum hAAT levels,"single IV 8 mg/kg + 4 mg/kg MLP, day 20",0.35 ± 0.05
same,Normalized serum hAAT levels,"single IV 8 mg/kg + 4 mg/kg MLP, day 29",0.80 ± 0.20
same,Normalized serum hAAT levels,"single IV 8 mg/kg + 4 mg/kg MLP, day 36",1.00 ± 0.20
same,Normalized serum hAAT levels,"single IV 8 mg/kg + 4 mg/kg MLP, day −7",0.70 ± 0.24
same,Normalized serum hAAT levels,"single IV 8 mg/kg + 8 mg/kg MLP, day 1",1.00
same,Normalized serum hAAT levels,"single IV 8 mg/kg + 8 mg/kg MLP, day 8",0.02 ± 0.00
same,Normalized serum hAAT levels,"single IV 8 mg/kg + 8 mg/kg MLP, day 15",0.13 ± 0.06
same,Normalized serum hAAT levels,"single IV 8 mg/kg + 8 mg/kg MLP, day 20",0.16 ± 0.04
same,Normalized serum hAAT levels,"single IV 8 mg/kg + 8 mg/kg MLP, day 29",0.43 ± 0.08
same,Normalized serum hAAT levels,"single IV 8 mg/kg + 8 mg/kg MLP, day 36",0.78 ± 0.23
same,Normalized serum hAAT levels,"single IV 8 mg/kg + 8 mg/kg MLP, day −7",0.89 ± 0.54
same,Serum hAAT normalized to day 1 and controls,"mice euthanized Day 3, Day 1",1.000
same,Serum hAAT normalized to day 1 and controls,"mice euthanized Day 3, Day 3",0.255 ± 0.040
same,Serum hAAT normalized to day 1 and controls,"mice euthanized Day 3, Day −2",1.068 ± 0.070
same,Serum hAAT normalized to day 1 and controls,"mice euthanized Day 8, Day 1",1.000
same,Serum hAAT normalized to day 1 and controls,"mice euthanized Day 8, Day 3",0.184 ± 0.025
same,Serum hAAT normalized to day 1 and controls,"mice euthanized Day 8, Day 8",0.054 ± 0.004
same,Serum hAAT normalized to day 1 and controls,"mice euthanized Day 8, Day −2",0.895 ± 0.129
same,Serum hAAT normalized to day 1 and controls,"mice euthanized Day 15, Day 1",1.000
same,Serum hAAT normalized to day 1 and controls,"mice euthanized Day 15, Day 3",0.243 ± 0.060
same,Serum hAAT normalized to day 1 and controls,"mice euthanized Day 15, Day 8",0.066 ± 0.023
same,Serum hAAT normalized to day 1 and controls,"mice euthanized Day 15, Day 15",0.095 ± 0.063
same,Serum hAAT normalized to day 1 and controls,"mice euthanized Day 15, Day −2",0.66 ± 0.121
same,Serum hAAT normalized to day 1 and controls,"mice euthanized Day 22, Day 1",1.000
same,Serum hAAT normalized to day 1 and controls,"mice euthanized Day 22, Day 3",0.202 ± 0.054
same,Serum hAAT normalized to day 1 and controls,"mice euthanized Day 22, Day 8",0.044 ± 0.010
same,Serum hAAT normalized to day 1 and controls,"mice euthanized Day 22, Day 15",0.056 ± 0.011
same,Serum hAAT normalized to day 1 and controls,"mice euthanized Day 22, Day 22",0.100 ± 0.039
same,Serum hAAT normalized to day 1 and controls,"mice euthanized Day 22, Day −2",0.779 ± 0.280
same,Serum hAAT normalized to day 1 and controls,"mice euthanized Day 29, Day 1",1.000
same,Serum hAAT normalized to day 1 and controls,"mice euthanized Day 29, Day 3",0.238 ± 0.062
same,Serum hAAT normalized to day 1 and controls,"mice euthanized Day 29, Day 8",0.052 ± 0.015
same,Serum hAAT normalized to day 1 and controls,"mice euthanized Day 29, Day 15",0.057 ± 0.016
same,Serum hAAT normalized to day 1 and controls,"mice euthanized Day 29, Day 22",0.103 ± 0.032
same,Serum hAAT normalized to day 1 and controls,"mice euthanized Day 29, Day 29",0.209 ± 0.071
same,Serum hAAT normalized to day 1 and controls,"mice euthanized Day 29, Day −2",0.653 ± 0.102
